Columns and labels:
[1] = system: Escherichia coli CCM4517; assay: Screen against bacteria, MIC/IC80; type: cell-based; settings: EC
[2] = system: Candida albicans ATCC 90028; assay: In vitro antifungal activity, MIC by microdilution (NCCLS M27-A)
Method: (§1) In vitro antifungal activities of the compounds were evaluated on the collection of fungal strains deposited at the Department of Biological and Medical Sciences, Faculty of Pharmacy, Charles University, Czech Republic. All the isolates were maintained on Sabouraud dextrose agar prior to being tested.
(§2) Minimum inhibitory concentrations (MICs) were determined by the microdilution format of the NCCLS M27-A guidelines. […] RPMI 1640 (Sevapharma, Prague) medium supplemented with L-glutamine and buffered with 0.165 M morpholinepropanesulfonic acid to pH 7.0 was used as the test medium. The wells of the microdilution tray contained 100 μl of the RPMI 1640 medium with 2-fold serial dilutions of the compounds (1000 to 0.24 μmol/l for the new compounds) and 100 μl of inoculum suspension. Fungal inoculum in RPMI 1640 was prepared to give a final concentration of 5×103±0.2 cfu·ml-1. The trays were incubated at 35° C. and MICs were read visually for filamentous fungi and photometrically for yeasts as an optical density (OD) at 540 nm after 24 h and 48 h. The MICs were defined as 80% inhibition of the growth of control. MICs were determined twice and in duplicate. The deviations from the usually obtained were no higher than the nearest concentration value up and down the dilution scale.

[3] = system: Absidia corymbifera 272; assay: as above; settings: AC
[4] = system: Trichophyton mentagrophytes 445; assay: as above; settings: TM
[5] = system: Staphylococcus aureus CCM 4516/08; assay: Screen against bacteria, MIC/IC80; type: cell-based; settings: SA
[6] = system: Candida parapsilosis ATCC 22019; assay: In vitro antifungal activity, MIC by microdilution (NCCLS M27-A); settings: CP
[7] = system: Candida krusei ATCC 6258; assay: as above
[8] = system: Candida krusei E28; assay: as above
Method: All the isolates were maintained on Sabouraud dextrose agar prior to being tested.
as §2

[9] = system: Candida glabrata 20/l; assay: as above; settings: CG
[10] = system: Candida albicans ATCC 44859; assay: as above
[11] = system: Candida lusitaniae 2446/l; assay: as above; settings: CL
[12] = system: Klebsiella pneumoniae J 14368/08 ESBL-positive; assay: Screen against bacteria, MIC/IC80; type: cell-based; settings: KP-E
[13] = system: Candida tropicalis 156; assay: In vitro antifungal activity, MIC by microdilution (NCCLS M27-A); settings: CT
Method: as §1, §2

[14] = system: Staphylococcus epidermidis H 6966/08; assay: Screen against bacteria, MIC/IC80; type: cell-based; settings: SE
[15] = system: Aspergillus fumigatus 231; assay: In vitro antifungal activity, MIC by microdilution (NCCLS M27-A); settings: AF
[16] = system: Enterococcus sp. J 14365/08; assay: Screen against bacteria, MIC/IC80; type: cell-based; settings: EF
[17] = system: Klebsiella pneumoniae D 11750/08; assay: Screen against bacteria, MIC/IC80; type: cell-based; settings: KP
[18] = system: Staphylococcus aureus H 5996/08 Methiciline-resistant; assay: Screen against bacteria, MIC/IC80; type: cell-based; settings: MRSA
[19] = system: Pseudomonas aeruginosa CCM 1961; assay: Screen against bacteria, MIC/IC80; type: cell-based; settings: PA

Compound	MIC/IC80 ([1]; 24 h)	MIC/IC80 ([1]; 48 h)	MIC/IC80 ([2]; CA2, 24 h)	MIC/IC80 ([2]; CA2, 48 h)	MIC/IC80 ([3]; 24 h)	MIC/IC80 ([3]; 48 h)	MIC/IC80 ([4]; 72 h)	MIC/IC80 ([4]; 120 h)	MIC/IC80 ([5]; 24 h)	MIC/IC80 ([5]; 48 h)	MIC/IC80 ([6]; 24 h)	MIC/IC80 ([6]; 48 h)	MIC/IC80 ([7]; CK1, 24 h)	MIC/IC80 ([7]; CK1, 48 h)	MIC/IC80 ([8]; CK2, 24 h)	MIC/IC80 ([8]; CK2, 48 h)	MIC/IC80 ([9]; 24 h)	MIC/IC80 ([9]; 48 h)	MIC/IC80 ([10]; CA1, 24 h)	MIC/IC80 ([10]; CA1, 48 h)	also measured
CCCCCOC(=O)C(OC(=O)Cn1cc[n+](C)c1)c1ccccc1.[Br-] (centres unmarked) [KG816, RS-3-methyl-1-[1-(pentoxycarbonyl)-1-phenylmethoxycarbonylmethyl]imidazolium bromide]	>1000 µM	>1000 µM	1000 µM	>1000 µM	1000 µM	1000 µM	500 µM	500 µM	1000 µM	1000 µM	>1000 µM	>1000 µM	1000 µM	1000 µM	1000 µM	>1000 µM	1000 µM	1000 µM	500 µM	1000 µM	MIC/IC80 ([11]; 24 h): >1000 µM; MIC/IC80 ([11]; 48 h): >1000 µM; MIC/IC80 ([12]; 24 h): >1000 µM; MIC/IC80 ([12]; 48 h): >1000 µM; MIC/IC80 ([13]; 24 h): 1000 µM; MIC/IC80 ([13]; 48 h): >1000 µM; MIC/IC80 ([14]; 24 h): >1000 µM; MIC/IC80 ([14]; 48 h): >1000 µM; MIC/IC80 ([15]; 24 h): 1000 µM; MIC/IC80 ([15]; 48 h): 1000 µM; MIC/IC80 ([16]; 24 h): >1000 µM; MIC/IC80 ([16]; 48 h): >1000 µM; MIC/IC80 ([17]; 24 h): >1000 µM; MIC/IC80 ([17]; 48 h): >1000 µM; MIC/IC80 ([18]; 24 h): >1000 µM; MIC/IC80 ([18]; 48 h): >1000 µM; MIC/IC80 ([19]; 24 h): >1000 µM; MIC/IC80 ([19]; 48 h): >1000 µM
CCCCCOC(=O)[C@@H](OC(=O)Cn1cc[n+](C)c1)c1ccccc1.[Br-] [KG824, S-3-methyl-1-[1-(pentoxycarbonyl)-1-phenylmethoxycarbonylmethyl]imidazolium bromide]	>1000 µM	>1000 µM	1000 µM	>1000 µM	1000 µM	1000 µM	500 µM	500 µM	>1000 µM	>1000 µM	>1000 µM	>1000 µM	1000 µM	>1000 µM	1000 µM	>1000 µM	1000 µM	>1000 µM	500 µM	>1000 µM	MIC/IC80 ([11]; 24 h): >1000 µM; MIC/IC80 ([11]; 48 h): >1000 µM; MIC/IC80 ([12]; 24 h): >1000 µM; MIC/IC80 ([12]; 48 h): >1000 µM; MIC/IC80 ([13]; 24 h): >1000 µM; MIC/IC80 ([13]; 48 h): >1000 µM; MIC/IC80 ([14]; 24 h): >1000 µM; MIC/IC80 ([14]; 48 h): >1000 µM; MIC/IC80 ([15]; 24 h): 1000 µM; MIC/IC80 ([15]; 48 h): 1000 µM; MIC/IC80 ([16]; 24 h): >1000 µM; MIC/IC80 ([16]; 48 h): >1000 µM; MIC/IC80 ([17]; 24 h): >1000 µM; MIC/IC80 ([17]; 48 h): >1000 µM; MIC/IC80 ([18]; 24 h): >1000 µM; MIC/IC80 ([18]; 48 h): >1000 µM; MIC/IC80 ([19]; 24 h): >1000 µM; MIC/IC80 ([19]; 48 h): >1000 µM
R-3-methyl-1-[1-(methoxycarbonyl)-1-phenylmethoxycarbonylmethyl]imidazolium octyl sulphate [KG87]	>1000 µM	>1000 µM	>1000 µM	>1000 µM	>1000 µM	>1000 µM	1000 µM	>1000 µM	>1000 µM	>1000 µM	>1000 µM	>1000 µM	1000 µM	>1000 µM	1000 µM	>1000 µM	>1000 µM	>1000 µM	>1000 µM	>1000 µM	MIC/IC80 ([11]; 24 h): >1000 µM; MIC/IC80 ([11]; 48 h): >1000 µM; MIC/IC80 ([12]; 24 h): >1000 µM; MIC/IC80 ([12]; 48 h): >1000 µM; MIC/IC80 ([13]; 24 h): >1000 µM; MIC/IC80 ([13]; 48 h): >1000 µM; MIC/IC80 ([14]; 24 h): >1000 µM; MIC/IC80 ([14]; 48 h): >1000 µM; MIC/IC80 ([15]; 24 h): >1000 µM; MIC/IC80 ([15]; 48 h): >1000 µM; MIC/IC80 ([16]; 24 h): >1000 µM; MIC/IC80 ([16]; 48 h): >1000 µM; MIC/IC80 ([17]; 24 h): >1000 µM; MIC/IC80 ([17]; 48 h): >1000 µM; MIC/IC80 ([18]; 24 h): >1000 µM; MIC/IC80 ([18]; 48 h): >1000 µM; MIC/IC80 ([19]; 24 h): >1000 µM; MIC/IC80 ([19]; 48 h): >1000 µM
CCCCCOC(=O)[C@H](OC(=O)C[n+]1ccn(C)c1)c1ccccc1 [KG833, R-3-methyl-1-[1-(pentoxycarbonyl)-1-phenylmethoxycarbonylmethyl]imidazolium bromide]	>1000 µM	>1000 µM	1000 µM	>1000 µM	1000 µM	1000 µM	500 µM	500 µM	1000 µM	>1000 µM	>1000 µM	>1000 µM	1000 µM	>1000 µM	1000 µM	>1000 µM	1000 µM	>1000 µM	500 µM	>1000 µM	MIC/IC80 ([11]; 24 h): >1000 µM; MIC/IC80 ([11]; 48 h): >1000 µM; MIC/IC80 ([12]; 24 h): >1000 µM; MIC/IC80 ([12]; 48 h): >1000 µM; MIC/IC80 ([13]; 24 h): 1000 µM; MIC/IC80 ([13]; 48 h): >1000 µM; MIC/IC80 ([14]; 24 h): >1000 µM; MIC/IC80 ([14]; 48 h): >1000 µM; MIC/IC80 ([15]; 24 h): 1000 µM; MIC/IC80 ([15]; 48 h): 1000 µM; MIC/IC80 ([16]; 24 h): >1000 µM; MIC/IC80 ([16]; 48 h): >1000 µM; MIC/IC80 ([17]; 24 h): >1000 µM; MIC/IC80 ([17]; 48 h): >1000 µM; MIC/IC80 ([18]; 24 h): >1000 µM; MIC/IC80 ([18]; 48 h): >1000 µM; MIC/IC80 ([19]; 24 h): >1000 µM; MIC/IC80 ([19]; 48 h): >1000 µM

— US8785655B2, “Ionic liquid solvents” (Dublin City University, priority 2009, dated 2014)
